# Measured values from ChEMBL document CHEMBL1201862, “PubChem BioAssay data set” (2004).
# The source made the active and inactive calls.
# Assays:
# Mu-type opioid receptor = Mu-type opioid receptor (Homo sapiens, UniProt P35372); type: functional, cell-based;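 note: U2OS cells with beta-arrestin recruitment to OPRM1 by beta-gal complementation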
# [1] = biological target: 5-hydroxytryptamine receptor 2A (Mus musculus, UniProt P35363); type: functional, cell-based;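 note: CHO-K1 cells with tagged receptor and beta-arrestin; agonist potency measured as compound-induced activation of the receptor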
# Sequence of 5-hydroxytryptamine receptor 2A (P35363 whole entry): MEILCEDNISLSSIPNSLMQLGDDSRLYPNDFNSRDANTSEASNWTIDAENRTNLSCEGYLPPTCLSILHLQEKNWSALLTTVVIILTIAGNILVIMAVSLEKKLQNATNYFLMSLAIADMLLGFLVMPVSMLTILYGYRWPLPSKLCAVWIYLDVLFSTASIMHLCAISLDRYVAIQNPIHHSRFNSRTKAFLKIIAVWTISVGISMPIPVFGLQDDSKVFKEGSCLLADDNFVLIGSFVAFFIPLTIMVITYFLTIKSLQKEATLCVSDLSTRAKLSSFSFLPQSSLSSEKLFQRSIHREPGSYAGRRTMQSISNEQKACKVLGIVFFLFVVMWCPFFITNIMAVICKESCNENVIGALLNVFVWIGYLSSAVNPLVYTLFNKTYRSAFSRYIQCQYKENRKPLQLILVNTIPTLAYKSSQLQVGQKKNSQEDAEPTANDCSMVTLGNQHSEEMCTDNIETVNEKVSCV
# [2] = cytotoxicity in HPDE-C7 cells, cell-based, fluorescence, HTS (AID 430); type: functional; settings: Homo sapiens
# [3] = cytotoxicity in KRAS-transformed pancreatic duct cells, primary screen, cell-based, fluorescence, HTS (AID 431); type: functional; settings: Homo sapiens;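 note: cell line used: HPDE-C7K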
# HEK293 = test: inhibitors of LMP1-driven NF-kB reporter, dose response, cell-based, HEK293, luciferase, cherry-pick (AID 588343); type: functional; settings: Homo sapiens
# [4] = Shn3 3'UTR reporter inhibitors, dose response, cell-based, Clone20 osteoblasts, firefly luciferase, cherry-picked (AID 624132); type: functional;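 note: firefly luciferase luminescence from reporter carrying the Shn3 3'UTR in osteoblasts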
# [5] = HepG2 cell cytotoxicity, dose response, cytotoxicity control for Shn3 inhibitor project, CellTiter-Glo, cherry-picked (AID 624134); type: functional, cell-based
# [6] = control 3'UTR Renilla luciferase suppression, dose response, counter-screen for Shn3 inhibitor project, cell-based, Clone20-Shn3RL, cherry-picked (AID 624133); type: functional
# Interleukin-8 = biological target: T1, Interleukin-8 (Homo sapiens, UniProt P10145); test: Dose Response confirmation of uHTS small molecule hits for cystic fibrosis induced NFkb Inhibitors in a PAF-induced IL8 counterscreen.; type: functional; settings: read-out: IC50_Mean
# T1 sequence (P10145 whole entry): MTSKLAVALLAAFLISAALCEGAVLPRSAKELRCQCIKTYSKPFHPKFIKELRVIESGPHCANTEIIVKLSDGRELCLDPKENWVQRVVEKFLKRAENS
# [7] = biological target: Glucose-6-phosphate 1-dehydrogenase (Homo sapiens, UniProt P11413); test: human G6PD enzyme inhibitors, dose response, selectivity assay for P. falciparum G6PD inhibitor project, biochemical, fluorescence (AID 504792); type: functional
# Sequence of Glucose-6-phosphate 1-dehydrogenase (P11413 whole entry): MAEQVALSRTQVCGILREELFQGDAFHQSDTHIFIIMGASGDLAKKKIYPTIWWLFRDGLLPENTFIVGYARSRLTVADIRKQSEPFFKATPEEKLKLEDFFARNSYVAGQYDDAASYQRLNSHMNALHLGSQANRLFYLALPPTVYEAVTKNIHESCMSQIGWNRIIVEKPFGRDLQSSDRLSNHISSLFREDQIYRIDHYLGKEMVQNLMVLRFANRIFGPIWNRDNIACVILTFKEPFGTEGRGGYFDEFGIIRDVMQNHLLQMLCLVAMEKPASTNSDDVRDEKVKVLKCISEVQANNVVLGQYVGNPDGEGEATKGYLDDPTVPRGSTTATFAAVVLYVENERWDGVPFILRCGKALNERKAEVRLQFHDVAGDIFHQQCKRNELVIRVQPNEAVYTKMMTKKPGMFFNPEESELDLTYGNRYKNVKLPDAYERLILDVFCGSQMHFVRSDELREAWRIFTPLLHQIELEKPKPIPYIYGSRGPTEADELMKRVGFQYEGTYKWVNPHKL
# cells = type: functional
# [8] = AlphaScreen signal interference compounds, dose response, artefact control for ARNT-TACC3 interaction inhibitor project, biochemical, luminescence, cherry-pick (AID 651705); type: functional;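 note: AlphaScreen bead proximity signal that flags compounds interfering with the detection technology; potency reflects signal decrease which marks the compound as an assay artifact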
# Vero [9] = test: cells; type: functional, cell-based; settings: Chlorocebus sabaeus
# Vero [10] = test: cells; type: functional; settings: Chlorocebus sabaeus
# [11] = biological target: T2, Adenosylmethionine-8-amino-7-oxononanoate aminotransferase (Mycobacterium tuberculosis, UniProt P9WQ81); test: Mycobacterium tuberculosis BioA enzyme inhibitor Measured in Biochemical System Using Plate Reader - 2163-02_Inhibitor_Dose_CherryPick_Activity.; type: functional, Mycobacterium tuberculosis UT205
# T2 sequence (P9WQ81 whole entry): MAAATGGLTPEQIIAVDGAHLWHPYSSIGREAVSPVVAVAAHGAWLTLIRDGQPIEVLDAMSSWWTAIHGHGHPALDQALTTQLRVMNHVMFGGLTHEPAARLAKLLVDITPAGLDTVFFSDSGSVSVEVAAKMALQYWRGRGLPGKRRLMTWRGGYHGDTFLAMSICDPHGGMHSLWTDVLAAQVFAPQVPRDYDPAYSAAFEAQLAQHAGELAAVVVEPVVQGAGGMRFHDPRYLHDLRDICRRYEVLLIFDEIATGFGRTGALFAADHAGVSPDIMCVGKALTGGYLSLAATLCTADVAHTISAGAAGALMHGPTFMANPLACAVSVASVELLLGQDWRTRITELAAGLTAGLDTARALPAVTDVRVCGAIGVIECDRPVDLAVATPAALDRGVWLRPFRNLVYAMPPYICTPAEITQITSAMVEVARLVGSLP
# [12] = HEp-2 cell cytotoxicity, dose response, cytotoxicity control for RSV inhibitor project, HTS (AID 2410); type: functional; settings: human respiratory syncytial virus
# Bcl-2-related protein A1 = biological target: T3, Bcl-2-related protein A1 (Mus musculus, UniProt Q07440); type: functional;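 note: confirmatory dose–response counterscreen on Bfl-1, used to check hits from a UBC13 polyubiquitin inhibitor campaign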
# T3 sequence (Q07440 whole entry): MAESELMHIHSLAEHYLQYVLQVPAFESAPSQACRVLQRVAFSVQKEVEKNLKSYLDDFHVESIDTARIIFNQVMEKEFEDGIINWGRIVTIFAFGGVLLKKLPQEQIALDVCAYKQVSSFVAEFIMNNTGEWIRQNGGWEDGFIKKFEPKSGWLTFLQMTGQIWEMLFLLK
# [13] = biological target: T4, Ubiquitin-conjugating enzyme E2 N (Homo sapiens, UniProt P61088); type: functional
# T4 sequence (P61088 whole entry): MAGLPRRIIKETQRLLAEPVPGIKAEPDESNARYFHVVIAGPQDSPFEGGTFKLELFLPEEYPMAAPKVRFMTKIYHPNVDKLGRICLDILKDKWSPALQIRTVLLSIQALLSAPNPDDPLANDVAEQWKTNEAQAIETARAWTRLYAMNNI
# [14] = biological target: T4, Ubiquitin-conjugating enzyme E2 N; type: functional; remark: listed apart in the source
# Sequence of Mu-type opioid receptor (P35372 whole entry): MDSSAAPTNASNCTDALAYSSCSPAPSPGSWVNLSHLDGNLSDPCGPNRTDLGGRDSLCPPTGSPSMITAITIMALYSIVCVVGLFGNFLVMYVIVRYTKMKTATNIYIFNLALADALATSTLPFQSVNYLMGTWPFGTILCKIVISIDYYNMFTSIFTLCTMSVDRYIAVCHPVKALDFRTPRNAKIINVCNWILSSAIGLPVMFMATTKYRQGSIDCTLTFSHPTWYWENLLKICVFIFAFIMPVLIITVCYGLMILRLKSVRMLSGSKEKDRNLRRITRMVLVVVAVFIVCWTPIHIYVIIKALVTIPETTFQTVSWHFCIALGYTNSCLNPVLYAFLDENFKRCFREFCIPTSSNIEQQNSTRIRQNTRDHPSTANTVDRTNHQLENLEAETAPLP
smiles,measurement,setting,value
COc1ccccc1CN1CCN(C(=O)c2ccco2)CC1,EC50,Mu-type opioid receptor,92.5 µM (inactive)
same,EC50,[1],1.99 µM (active)
Fc1ccc2[nH]c3c(N4CCSCC4)ncnc3c2c1,EC50,[2],13.4 µM (active)
same,EC50,[3],13.3 µM (active)
same,AC50,HEK293,1.5 µM (active)
same,AC50,[4],2.76 µM (active)
same,AC50,[5],30 µM (active)
same,AC50,[6],2.6 µM (active)
CCn1c2ccccc2c2cc(/C=N/O)ccc21,IC50,Interleukin-8,7.06 µM (active)
C[C@H](CO)N1C[C@H](C)[C@@H](CN(C)C(=O)Nc2ccc(C(F)(F)F)cc2)Oc2c(cccc2N(C)C)C1=O,IC50,[7],> 80 µM (inactive)
Fc1ccc(-c2ccc(CNCc3ccccn3)o2)cc1Cl,IC50,cells,4.34 µM (active)
same,AC50,[8],88.6 µM (active)
O=C(CNC(=O)c1cccc(S(=O)(=O)N2CCc3ccccc32)c1)Nc1ccccc1Br,IC50,Vero [9],16.9 µM (active)
same,CC50,Vero [10],> 25 µM (active)
CC(=O)N1CC[C@@H]2[C@@H](CO)N(C)c3ccc(-c4ccccc4)cc3[C@@H]21,AC50,[11],8.17 µM (active)
COc1cc(N)c2ncsc2c1,IC50,[7],> 80 µM (inactive)
CCc1ccc2nc(N(CCCN(C)C)C(=O)c3ccc(C(=O)c4ccccc4)cc3)sc2c1,CC50,[12],20.5 µM (active)
same,IC50,Bcl-2-related protein A1,> 20 µM (inactive)
same,IC50,[13],13.2 µM (active)
same,IC50,[14],11.6 µM (active)
COc1ccc(C2/C=C\CN(C(=O)C3CCCC3)CC(=O)N2Cc2ccc(F)cc2)cc1 (stereo not drawn),EC50,Mu-type opioid receptor,92.5 µM (inactive)
same,EC50,[1],76.1 µM (inactive)
CC1CCCN(c2ccc(C(=O)Nc3cccnc3)cc2[N+](=O)[O-])C1 (stereo not drawn),AC50,[11],1.11 µM (active)
